The values that follow come from patent publication US12215104B2, “Anti-biofilm compounds” (UNIVERSITY OF LOUISVILLE RESEARCH FOUNDATION, INC., priority 2018, dated 2025).

For series [1], the system named is P. gingivalis adherence to S. gordonii. Description: Inhibition of P. gingivalis adherence to S. gordonii in two-species biofilm model. It is filed as cell-based, P. gingivalis ATCC33277; S. gordonii DL-1. The source says:
To assess the functional activity of the click products, compounds 28-57 (Groups I and II) and 90-124 (Group III) were examined for inhibition of P. gingivalis adherence to S. gordonii using an established biofilm model system as described in the Section 4.2.1 [41]. For each compound tested, an IC50 value for adherence inhibition was approximated after quantifying the ratio of green to red fluorescence and these values are shown in Tables 2, 3 and 4. Compounds were classified as strong (IC50<10 μM), moderate (IC50=10-20 μM) or weak (IC50>20 μM) inhibitors of adherence. Twelve compounds were identified as strong inhibitors and an additional ten compounds were classified as moderate inhibitors. […] Compounds 54, 56, 93, 95, 100, 102, 103, and 115 were also tested to determine if they affect the growth of P. gingivalis or S. gordonii. […] The sulfoxide group does impart asymmetry to the molecule; however, the mixture of enantiomers, assuming the peracid oxidation was racemic, was not separated and bioassayed. The Group III active compounds (95-117) all contain the 1,3,5-trisubstituted-2,4,6-triazine modeled after the Katzenellenbogen rendering of an active motif whereby the key leucine residues which mimicked the VXXLL receptor box lie in a triangular arrangement. While the original iteration of the Katzenellenbogen VXXLL mimics were the hydrophobic 3,5-disubstituted-di-N-alkyamino-triazine motifs, we introduced the hydrophobic 2- and 4-(fluorophenyl)amino groups at positions 3 and 5 of the 2,4,6-triazine (See Compounds 102, 111, 115, 122).
P. gingivalis ATCC33277 was grown in reduced trypticase soy broth (Difco) supplemented with 0.5 percent yeast extract, 1 μg/mL menadione, and 5 μg/mL hemin. Twenty five milliliters of medium were reduced for 24 h under anaerobic conditions by equilibrating in an atmosphere consisting of 10% CO2, 10% H2, and 80% N2. Following equilibration, P. gingivalis was inoculated in the media and grown for 48 h at 37° C. under anaerobic conditions. S. gordonii DL-1 (1) was cultured aerobically without shaking in brain heart infusion (BHI) broth supplemented with 1 percent yeast extract for 16 hours at 37° C. For some compounds that inhibited P. gingivalis adherence to S. gordonii, we determined their affect the planktonic growth of P. gingivalis and S. gordonii. Broth cultures were grown as described above and compared to cultures grown in the absence of the compound. Cell density of each culture was determined by measuring the optical density at 600 nm (O.D.600 nm) after 24 h of growth. The percent growth inhibition/stimulation was calculated using the following equation: [(O.D.600 nm of the control/O.D.600 nm of the culture grown in the presence of compound)−1]×100.
Two species biofilms were formed essentially as previously described. To prepare bacterial cells for biofilm culture, 10 ml of an overnight S. gordonii culture was centrifuged at 5600 rpm for 5 min and the cell pellet was suspended in 1 mL sterile PBS. Subsequently, 20 μL of 5 mg/ml hexidium iodide (Molecular Probes) was added to the cell suspension and incubated for 15 min with gentle shaking at room temperature in the dark. The labeled cells were centrifuged as described above, washed with phosphate buffered saline (10 mM Na2HPO4, […], […], and 2.7 mM KCl, pH 7.2; [PBS]) and the cell pellet was suspended in PBS at a final O.D.600 nm of 0.8. Similarly, 10 mL of a 48 h culture of P. gingivalis was centrifuged at 5600 rpm for 15 min, the cell pellet was suspended in 1 mL PBS and 20 μl of 5(6)-carboxyfluorescein N-hydroxysuccinimide ester (4 mg/ml, Molecular Probes, Inc.) was added. After incubation for 30 min with gentle shaking at room temperature in the dark, the suspension was centrifuged and washed as described above and suspended in PBS at a final O.D.600 nm of 0.4. […]

Series [2] deals with pre-existing 3-species biofilm. Description: Disruption of a pre-existing 3-species biofilm in vitro. It is filed as cell-based. The following applies: 20 μM.
The test system of the next series is gingival keratinocytes. Description: Induction of apoptosis in gingival keratinocytes. It is filed as cell-based.
The mark [3] stands for this setting: Table 2, Group I triazoles, concentration reducing ratio of green (P. gingivalis) to red (S. gordonii) fluorescence by 50%, approximated.
Setting [4] is: Table 3, Group II click products, concentration reducing green to red fluorescence ratio by 50%, approximated.

The compound `Fc1ccc(Nc2nc(Nc3ccc(F)cc3)nc(-c3cn(-c4ccccc4-c4nc(-c5ccco5)c(-c5ccco5)o4)nn3)n2)cc1` [Compound 122] gave an IC50 in series [1] (Group III) of 2.4 µM. Further, the entries for the “disruption of pre-existing 3-species biofilm” value in series [2] (time treated 1 h), in series [2] (time treated 2 h) and in series [2] (time treated 3 h) were 0, 25.71 and 68.82, respectively. Moreover, the early apoptosis with gingival keratinocytes (5 μM, gingival keratinocytes) came out at 4.50; in the series on gingival keratinocytes (20 μM, gingival keratinocytes) it was 5.93; with gingival keratinocytes (60 μM, gingival keratinocytes), 7.54. Also, the late apoptosis is listed as 3.95 in the series on gingival keratinocytes (5 μM, gingival keratinocytes); 2.92 with gingival keratinocytes (20 μM, gingival keratinocytes); 4.59 in the series with gingival keratinocytes (60 μM, gingival keratinocytes). Further, the live cells in the series on gingival keratinocytes (5 μM, gingival keratinocytes) was 88.30; with gingival keratinocytes (20 μM, gingival keratinocytes), 88.80; in the series on gingival keratinocytes (60 μM, gingival keratinocytes), 83.65.

In series [1] (Group III), `Fc1ccc(Nc2nc(Nc3ccc(F)cc3)nc(-c3cn(-c4ccccc4-c4nc(-c5ccc(F)cc5)c(-c5ccc(F)cc5)o4)nn3)n2)cc1` [Compound 113] showed an IC50 of 49.2 µM. The same measure, in the same setting: as for `Fc1ccccc1Nc1nc(Nc2ccccc2F)nc(-c2cn(-c3ccc(-c4nc(-c5ccccc5)c(-c5ccccc5)o4)cc3)nn2)n1` [Compound 101], the figure is more than 60 µM. `CCN(CC)c1nc(-c2cn(-c3cccc(-c4nc(-c5ccco5)c(-c5ccco5)o4)c3)nn2)nc(N(CC)CC)n1` [Compound 98] showed an IC50 in series [1] (Group III) of more than 60 µM. For `O=S(=O)(Cc1nc(-c2ccccc2)c(-c2ccccc2)o1)c1ccc(-n2cc(-c3ccc(Oc4ccccc4)cc3)nn2)cc1` [Compound 44], the IC50 in series [1] (setting [3]) amounted to 16.5 µM.

Take `[O-][S+](Cc1nc(-c2ccc(Cl)cc2)c(-c2ccc(Cl)cc2)o1)c1ccc(-n2cc(-c3ccc(F)cc3)nn2)cc1` (stereo not shown) [Compound 50]: in series [1] (setting [4]), the IC50 is 39.8 µM. The same measure, in the same setting: as for `COc1ccccc1-c1cn(-c2ccc([S+]([O-])Cc3nc(-c4ccc(Cl)cc4)c(-c4ccc(Cl)cc4)o3)cc2)nn1` (stereo not shown) [Compound 51], the figure is 10.2 µM.

`COc1ccc(-c2nc(-c3ccc(-n4cc(-c5nc(Nc6ccccc6F)nc(Nc6ccccc6F)n5)nn4)cc3)oc2-c2ccc(OC)cc2)cc1` [Compound 107] returned an IC50 in series [1] (Group III) of 40 µM. The compound `Fc1ccc(Nc2nc(Nc3ccc(F)cc3)nc(-c3cn(-c4ccc(-c5nc(-c6ccc(Cl)cc6)c(-c6ccc(Cl)cc6)o5)cc4)nn3)n2)cc1` [Compound 118] yielded an IC50 in series [1] (Group III) of 13.3 µM. On to `COc1ccccc1-c1cn(-c2ccc([S+]([O-])Cc3nc(-c4ccccc4)c(-c4ccccc4)o3)cc2)nn1` (stereo not shown) [Compound 31], for which the IC50 in series [1] (setting [3]) is more than 60 µM. For `COc1ccc(-c2nc(-c3ccc(-n4cc(-c5nc(Nc6ccc(F)cc6)nc(Nc6ccc(F)cc6)n5)nn4)cc3)oc2-c2ccc(OC)cc2)cc1` [Compound 121], the IC50 in series [1] (Group III) is more than 60 µM. Take `[O-][S+](Cc1nc(-c2ccccc2)c(-c2ccccc2)o1)c1ccc(-n2cc(-c3cccnc3)nn2)cc1` (racemic) [Compound 28, 4,5-Diphenyl-2-(((4-(4-(pyridin-3-yl)-1H-1,2,3-triazol-1-yl)phenyl)sulfinyl)methyl) oxazole]: the IC50 in series [1] (setting [3]) is more than 60 µM.

In turn, `Fc1ccc(Nc2nc(Nc3ccc(F)cc3)nc(-c3cn(-c4ccc(-c5nc(-c6ccccc6)c(-c6ccccc6)o5)cc4)nn3)n2)cc1` [Compound 112] registered an IC50 in series [1] (Group III) of more than 60 µM. On the same count and under the same terms, then `COc1ccc(-c2nc(-c3cccc(-n4cc(-c5nc(Nc6ccccc6F)nc(Nc6ccccc6F)n5)nn4)c3)oc2-c2ccc(OC)cc2)cc1` [Compound 106], with more than 60 µM. Turning to `O=S(=O)(Cc1nc(-c2ccccc2)c(-c2ccccc2)o1)c1ccc(-n2cc(-c3cccnc3)nn2)cc1` [Compound 37], in series [1] (setting [3]), the IC50 was more than 60 µM. On to `O=S(=O)(Cc1nc(-c2ccc(Cl)cc2)c(-c2ccc(Cl)cc2)o1)c1ccc(-n2cc(-c3cccc(F)c3)nn2)cc1` [Compound 55], for which, in series [1] (setting [4]), the IC50 amounted to 18.2 µM.

Regarding `Fc1ccc(Nc2nc(Nc3ccc(F)cc3)nc(-c3cn(-c4cccc(-c5nc(-c6ccc(F)cc6)c(-c6ccc(F)cc6)o5)c4)nn3)n2)cc1` [Compound 114], the IC50 in series [1] (Group III) was more than 60 µM.

Turning to `CCN(CC)c1nc(-c2cn(-c3cccc(-c4nc(-c5ccccc5)c(-c5ccccc5)o4)c3)nn2)nc(N(CC)CC)n1` [Compound 90], half-maximal inhibition in series [1] (Group III) (IC50) was put at 20.7 µM. For `COc1ccc2cc(-c3cn(-c4ccc([S+]([O-])Cc5nc(-c6ccccc6)c(-c6ccccc6)o5)cc4)nn3)ccc2c1` (stereo not shown) [Compound 33], in series [1] (setting [3]), the IC50 was more than 60 µM.

`Fc1ccc(Nc2nc(Nc3ccc(F)cc3)nc(-c3cn(-c4ccc(-c5nc(-c6ccco6)c(-c6ccco6)o5)cc4)nn3)n2)cc1` [Compound 124] returned an IC50 in series [1] (Group III) of 7.8 µM.

For `CCN(CC)c1nc(-c2cn(-c3cccc(-c4nc(-c5ccc(OC)cc5)c(-c5ccc(OC)cc5)o4)c3)nn2)nc(N(CC)CC)n1` [Compound 96], in series [1] (Group III), the IC50 was more than 60 µM.

On to `[O-][S+](Cc1nc(-c2ccccc2)c(-c2ccccc2)o1)c1ccc(-n2cc(-c3ccc(Oc4ccccc4)cc3)nn2)cc1` (stereo not shown) [Compound 35], for which, in series [1] (setting [3]), the IC50 is more than 60 µM. On the same count and under the same terms, then `O=S(=O)(Cc1nc(-c2ccccc2)c(-c2ccccc2)o1)c1ccc(-n2cc(-c3cc(C(F)(F)F)cc(C(F)(F)F)c3)nn2)cc1` [Compound 45], with 38.5 µM.

In series [1] (Group III), `Fc1ccc(Nc2nc(Nc3ccc(F)cc3)nc(-c3cn(-c4ccccc4-c4nc(-c5ccccc5)c(-c5ccccc5)o4)nn3)n2)cc1` [Compound 110] showed an IC50 of more than 60 µM. As to `COc1ccc2cc(-c3cn(-c4ccc(S(=O)(=O)Cc5nc(-c6ccccc6)c(-c6ccccc6)o5)cc4)nn3)ccc2c1` [Compound 42], the IC50 in series [1] (setting [3]) is more than 60 µM. Same read-out and setting: as for `[O-][S+](Cc1nc(-c2ccccc2)c(-c2ccccc2)o1)c1ccc(-n2cc(-c3cc(C(F)(F)F)cc(C(F)(F)F)c3)nn2)cc1` (stereo not shown) [Compound 36], the figure is more than 60 µM. For `CCCCCc1ccc(-c2cn(-c3ccc(S(=O)(=O)Cc4nc(-c5ccccc5)c(-c5ccccc5)o4)cc3)nn2)cc1` [Compound 43], the IC50 in series [1] (setting [3]) stood at 36.6 µM. In the series with gingival keratinocytes (4 mM 1 h, positive control), `OO` [Compound H2O2, H2O2, reference compound] gave an early apoptosis of 35.60, a late apoptosis of 41.50 and a live cells of 11.30. In series [1] (Group III), `Fc1ccccc1Nc1nc(Nc2ccccc2F)nc(-c2cn(-c3ccc(-c4nc(-c5ccc(Cl)cc5)c(-c5ccc(Cl)cc5)o4)cc3)nn2)n1` [Compound 105] returned an IC50 of more than 60 µM. Take `[O-][S+](Cc1nc(-c2ccccc2)c(-c2ccccc2)o1)c1ccc(-n2cc(-c3ccccc3C(F)(F)F)nn2)cc1` (stereo not shown) [Compound 32]: in series [1] (setting [3]), the IC50 was more than 60 µM. Take `CCN(CC)c1nc(-c2cn(-c3ccc(-c4nc(-c5ccccc5)c(-c5ccccc5)o4)cc3)nn2)nc(N(CC)CC)n1` [Compound 91]: in series [1] (Group III), the IC50 is more than 60 µM.

For `COc1ccc(-c2nc(-c3ccccc3-n3cc(-c4nc(Nc5ccc(F)cc5)nc(Nc5ccc(F)cc5)n4)nn3)oc2-c2ccc(OC)cc2)cc1` [Compound 119], in series [1] (Group III), the IC50 is more than 60 µM.

In general, IC50 refers to the midpoint of a concentration-inhibition curve.
